Legend:
cytokines = assay: Organ culture of duodenal biopsies, cytokines overall; format: cell-based, human; conditions: biopsies of celiac disease subjects versus subjects without celiac disease
Experimental: The biopsies were washed in saline for two minutes at least three times. The biopsies were placed in culture media having a volume equal to 1 ml: The biopsies are incubated in an O2 (95%) and CO2 (5%) atmosphere at a temperature of 37° C. for a period ranging from 4 h to 72 h. Three different amounts of medium are shared for the ELISA assay of Th1 and Th2 cytokines released in culture media.

TNF [1] = assay: Cytokine assay (ELISA) in culture liquids of duodenal biopsy organ cultures: TNF; format: cell-based, human; conditions: for TNF, PT + 5ASA C, Mean / TNF, PT + 5ASA C, Median: peptic-tryptic digest of gliadin (PT)
Experimental: (§1) 3 groups of subjects were evaluated. The first (atrophic) group included 29 subjects with serum tests positive to antiendomysium and anti-transglutaminase antibodies, with a neo-diagnosis of celiac disease and gluten-containing diet. The second (Remission) group included 17 celiac disease subjects in clinical remission and gluten-free diet for at least 6 months. The third (Healthy) group included subjects not suffering from the celiac disease but suffering from inflammation of the gastro-enteric tract. […] The biopsies were washed in saline for two minutes at least three times. […] Three different amounts of medium are shared for the ELISA assay of Th1 and Th2 cytokines released in culture media.

IL-2 = assay: Gene expression (mRNA) by RT-PCR in cultured duodenal biopsies of celiac patients: IL-2; format: cell-based, human; conditions: PT medium with 5-ASA versus PT medium, 37° C., 48 h; optical density of bands
IFN-gamma = assay: Gene expression (mRNA) by RT-PCR in cultured duodenal biopsies of celiac patients: IFN-gamma; format: cell-based, human; conditions: PT medium with 5-ASA versus PT medium, 37° C., 48 h; optical density of bands
TFN-alpha = assay: Gene expression (mRNA) by RT-PCR in cultured duodenal biopsies of celiac patients: TFN-alpha; format: cell-based, human; conditions: PT medium with 5-ASA versus PT medium, 37° C., 48 h; optical density of bands
TNF [2] = assay: Cytokine assay (ELISA) from homogenate of cultured duodenal biopsies: TNF; format: cell-based, human; conditions: for TNF, PT + 5ASA O, Mean / TNF, PT + 5ASA O, Median: peptic-tryptic digest of gliadin (PT)
Experimental: (§2) The biopsies were washed in saline for two minutes at least three times. […] After an incubation time ranging from 4 h to 72 h, at a T of 37° C.: The bioptic fragment is washed three times in saline for two minutes The biopsies are homogenised by mechanical or chemical disintegration Centrifugation is carried out, the supernatant is collected and transferred in a 1.5 ml Eppendorf Fixed cytokines in the mucosal tissue are assayed by the Elisa assay.

IFN [3] = assay: Cytokine assay (ELISA) from homogenate of cultured duodenal biopsies: IFN; format: cell-based, human; conditions: for IFN, PT + 5ASA O, Mean / IFN, PT + 5ASA O, Median: peptic-tryptic digest of gliadin (PT)
Experimental: as §2

PPARγ = molecular target: T1, PPARγ (Homo sapiens, UniProt P37231); assay: PPARγ activation, PPRE luciferase reporter in transfected HT-29 STD cells (Example 7); format: cell-based; conditions: 30 mM, positive control
T1 construct: HT-29 STD cells were transiently transfected using the Effectene™ transfection reagent; endogenous in cells; host or cells: HT-29 STD (ATCC HTB-38)
T1 sequence (P37231 1-505): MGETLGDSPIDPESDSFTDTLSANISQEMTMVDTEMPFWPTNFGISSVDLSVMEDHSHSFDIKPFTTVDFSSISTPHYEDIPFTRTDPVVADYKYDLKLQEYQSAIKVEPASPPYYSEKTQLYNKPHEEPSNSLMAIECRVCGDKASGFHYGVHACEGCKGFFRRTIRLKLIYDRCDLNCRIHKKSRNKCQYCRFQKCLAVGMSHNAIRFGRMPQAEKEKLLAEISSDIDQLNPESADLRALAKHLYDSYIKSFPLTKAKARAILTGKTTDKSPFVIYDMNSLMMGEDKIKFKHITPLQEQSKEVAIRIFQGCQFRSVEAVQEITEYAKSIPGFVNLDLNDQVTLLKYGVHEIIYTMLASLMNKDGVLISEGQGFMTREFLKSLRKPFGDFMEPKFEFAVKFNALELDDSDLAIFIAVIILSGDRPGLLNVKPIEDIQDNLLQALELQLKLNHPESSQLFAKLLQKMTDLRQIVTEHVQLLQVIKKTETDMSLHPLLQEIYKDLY
Experimental: The colon carcinoma cell line HT-29 STD (ATCC HTB-38) was routinely grown in DMEM supplemented with 10% heat-FCS, and antibiotics.
HT-29 STD cells were transiently transfected using the Effectene™ transfection reagent (Qiagen™) according to instructions from the manufacturer. To test PPARγ activation, we performed transfection with 500 ng of a minimal promoter construct containing two copies of PPRE obtained from the cytochrome p450 4A (2XCYP). The renilla luciferase plasmid (0.1 μg/well) was also transfected as an internal control for monitoring transfection efficiency and for normalizing the firefly luciferase activity. Transfected cells were left for 24 hours incubation at 37° C. […] The pH of the drug solutions was adjusted to 7.4 with NaOH. Total cell extracts were prepared using the Passive Lysis Buffer (Promega™, Madison, Wis.). Luciferase activity was assayed in 20 μl of the extract using Promega's Dual Luciferase assay system according to manufacturer's protocol. Transfections were assayed in triplicate in at least three separate experiments. The luciferase activity was expressed as fold of the activity obtained in cells treated with the different molecules dividing by luciferase activity from non stimulated cells.
We investigated PPARγ transcriptional activity by transient transfections of epithelial cells with the renilla luciferase and PPRE plasmids. […]

IFN [4] = assay: Cytokine assay (ELISA) in culture liquids of duodenal biopsy organ cultures, 5-ASA 1.5-8.0 mg per ml, 4 h to 72 h: IFN; format: cell-based, human; conditions: for IFN, PT + 5ASA C, Mean / IFN, PT + 5ASA C, Median: peptic-tryptic digest of gliadin (PT)
Experimental: as §1

[5] = Atrophic population, N 21, Wilcoxon p = N.S.
[6] = Positive control population, N 7
[7] = Positive control population, N 7, Wilcoxon p = N.S.
[8] = Remission population, N 15, Wilcoxon p = N.S.
[9] = Atrophic population, N 11, Wilcoxon p = 0.002
[10] = Atrophic population, N 11, Wilcoxon p = N.S.
[11] = Remission population, N 5, Wilcoxon p = N.S.
[12] = Atrophic population, N 9, Wilcoxon p = 0.003
[13] = Atrophic population, N 9, Wilcoxon p = 0.019
[14] = Remission population, N 4, Wilcoxon p = N.S.
[15] = Atrophic population, N 22, Wilcoxon p = 0.05
[16] = Atrophic population, N 22, Wilcoxon p = 0.08
[17] = Remission population, N 15, Wilcoxon p = 0.022

Nc1ccc(O)c(C(=O)O)c1 [Compound 5ASA, mesalazine]
effect of Mesalazine in culture media on the cytokines (cytokines): blocks the cytokines in celiac disease subjects only | TNF, Medium + 5ASA C, Mean (TNF [1]; Atrophic population, N 21): 0.472 | TNF, Medium + 5ASA C, Median (TNF [1]; Atrophic population, N 21): 0.204 | TNF, Difference PT C/PT + 5ASA C, Median (TNF [1]; Atrophic population, N 21, Wilcoxon p < 0.0001): 0.0580 | TNF, Difference Medium C/Medium + 5ASA C, Mean (TNF [1]; [5]): 0.0048 | TNF, Difference Medium C/Medium + 5ASA C, Median (TNF [1]; [5]): 0.0150 | TNF, PT + 5ASA C, Mean (TNF [1]; Atrophic population, N 21): 0.414 | TNF, PT + 5ASA C, Median (TNF [1]; Atrophic population, N 21): 0.120 | TNF, Medium + 5ASA C, Mean (TNF [1]; [6]): 0.259 | TNF, Medium + 5ASA C, Median (TNF [1]; [6]): 0.229 | TNF, Difference Medium C/Medium + 5ASA C, Mean (TNF [1]; [7]): 0.005 | TNF, Difference Medium C/Medium + 5ASA C, Median (TNF [1]; [7]): 0.0040 | TNF, Difference PT C/PT + 5ASA C, Mean (TNF [1]; [7]): 0.0226 | TNF, Difference PT C/PT + 5ASA C, Median (TNF [1]; [7]): 0.0250 | TNF, PT + 5ASA C, Mean (TNF [1]; [6]): 0.291 | TNF, Medium + 5ASA C, Mean (TNF [1]; Remission population, N 15): 0.894 | TNF, Medium + 5ASA C, Median (TNF [1]; Remission population, N 15): 0.571 | TNF, Difference PT C/PT + 5ASA C, Median (TNF [1]; Remission population, N 15, Wilcoxon p = 0.005): 0.221 | TNF, Difference Medium C/Medium + 5ASA C, Mean (TNF [1]; [8]): 0.0541 | TNF, Difference Medium C/Medium + 5ASA C, Median (TNF [1]; [8]): 0.0790 | TNF, PT + 5ASA C, Mean (TNF [1]; Remission population, N 15): 0.305 | TNF, PT + 5ASA C, Median (TNF [1]; Remission population, N 15): 0.545 | gene expression (mRNA) of IL-2 (IL-2): well reduced | gene expression (mRNA) of IFN-gamma (IFN-gamma): well reduced | gene expression (mRNA) of TFN-alpha (TFN-alpha): well reduced | TNF, Medium + 5ASA O, Mean (TNF [2]; Atrophic population, N 11): 0.123 | TNF, Difference PT O/PT + 5ASA O, Mean (TNF [2]; [9]): 0.0554 | TNF, Difference PT O/PT + 5ASA O, Median (TNF [2]; [9]): 0.0270 | TNF, Difference Medium O/Medium + 5ASA O, Mean (TNF [2]; [10]): 0.0154 | TNF, Difference Medium O/Medium + 5ASA O, Median (TNF [2]; [10]): 0.0100 | TNF, PT + 5ASA O, Mean (TNF [2]; Atrophic population, N 11): 0.101 | TNF, PT + 5ASA O, Median (TNF [2]; Atrophic population, N 11): 0.0980 | TNF, Medium + 5ASA O, Mean (TNF [2]; Remission population, N 5): 0.122 | TNF, Difference Medium O/Medium + 5ASA O, Mean (TNF [2]; [11]): −0.00 | TNF, Difference Medium O/Medium + 5ASA O, Median (TNF [2]; [11]): 0.0050 | TNF, Difference PT O/PT + 5ASA O, Mean (TNF [2]; [11]): 0.0194 | TNF, Difference PT O/PT + 5ASA O, Median (TNF [2]; [11]): 0.0210 | TNF, PT + 5ASA O, Mean (TNF [2]; Remission population, N 5): 0.107 | TNF, PT + 5ASA O, Median (TNF [2]; Remission population, N 5): 0.110 | IFN, Medium + 5ASA O, Mean (IFN [3]; Atrophic population, N 9): 0.202 | IFN, Medium + 5ASA O, Median (IFN [3]; Atrophic population, N 9): 0.193 | IFN, Difference Medium O/Medium + 5ASA O, Mean (IFN [3]; [12]): 0.0951 | IFN, Difference Medium O/Medium + 5ASA O, Median (IFN [3]; [12]): 0.0560 | IFN, Difference PT O/PT + 5ASA O, Mean (IFN [3]; [13]): 0.0437 | IFN, Difference PT O/PT + 5ASA O, Median (IFN [3]; [13]): 0.0380 | IFN, PT + 5ASA O, Mean (IFN [3]; Atrophic population, N 9): 0.179 | IFN, PT + 5ASA O, Median (IFN [3]; Atrophic population, N 9): 0.193 | IFN, Medium + 5ASA O, Mean (IFN [3]; Remission population, N 4): 0.133 | IFN, Difference Medium O/Medium + 5ASA O, Mean (IFN [3]; [14]): 0.120 | IFN, Difference PT O/PT + 5ASA O, Mean (IFN [3]; [14]): 0.0230 | IFN, Difference PT O/PT + 5ASA O, Median (IFN [3]; [14]): 0.0215 | IFN, PT + 5ASA O, Mean (IFN [3]; Remission population, N 4): 0.177 | IFN, PT + 5ASA O, Median (IFN [3]; Remission population, N 4): 0.161 | increase of the reporter gene activity (PPARγ): 2.8±0.7 fold | IFN, Difference PT C/PT + 5ASA C, Mean (IFN [4]; [15]): 0.0657 | IFN, Difference PT C/PT + 5ASA C, Median (IFN [4]; [15]): 0.0505 | IFN, Difference Medium C/Medium + 5ASA C, Mean (IFN [4]; [16]): 0.0601 | IFN, Difference Medium C/Medium + 5ASA C, Median (IFN [4]; [16]): 0.0260 | IFN, PT + 5ASA C, Mean (IFN [4]; Atrophic population, N 22): 0.145 | IFN, PT + 5ASA C, Median (IFN [4]; Atrophic population, N 22): 0.0545 | IFN, Medium + 5ASA C, Mean (IFN [4]; [6]): 0.149 | IFN, Medium + 5ASA C, Median (IFN [4]; [6]): 0.140 | IFN, Difference Medium C/Medium + 5ASA C, Mean (IFN [4]; [7]): 0.004 | IFN, Difference Medium C/Medium + 5ASA C, Median (IFN [4]; [7]): 0.029 | IFN, Difference PT C/PT + 5ASA C, Mean (IFN [4]; [7]): 0.0247 | IFN, Difference PT C/PT + 5ASA C, Median (IFN [4]; [7]): 0.0090 | IFN, PT + 5ASA C, Mean (IFN [4]; [6]): 0.116 | IFN, PT + 5ASA C, Median (IFN [4]; [6]): 0.121 | IFN, Medium + 5ASA C, Mean (IFN [4]; Remission population, N 15): 0.201 | IFN, Medium + 5ASA C, Median (IFN [4]; Remission population, N 15): 0.208 | IFN, Difference PT C/PT + 5ASA C, Mean (IFN [4]; [17]): 0.101 | IFN, Difference PT C/PT + 5ASA C, Median (IFN [4]; [17]): 0.0210 | IFN, Difference Medium C/Medium + 5ASA C, Mean (IFN [4]; [8]): 0.0383 | IFN, Difference Medium C/Medium + 5ASA C, Median (IFN [4]; [8]): 0.0500 | IFN, PT + 5ASA C, Mean (IFN [4]; Remission population, N 15): 0.153 | IFN, PT + 5ASA C, Median (IFN [4]; Remission population, N 15): 0.0960
